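Cells were grown in 96-well plates and exposed to each compound for 48 hours at five concentrations; endpoints were interpolated linearly between bracketing concentrations, or set to the highest concentration if not reached. At the TGI there is no net growth.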
Key:
Assay in all cases: inhibition of tumour cell growth, NCI panel, 48 h
[1] = tested on: LXFL 529 NSCLC
[2] = tested on: KM20L2 colon
[3] = tested on: RXF-631 renal
[4] = tested on: M19-MEL melanoma
[5] = tested on: DLD-1 colon
[6] = tested on: DMS 114 small cell lung
[7] = tested on: HOP-18 NSCLC
[8] = tested on: SNB-78 CNS
[9] = tested on: XF 498 CNS

| Compound | TGI [1] | TGI [2] | TGI [3] | TGI [4] | TGI [5] | TGI [6] | TGI [7] | TGI [8] | TGI [9] |
| --- | --- | --- | --- | --- | --- | --- | --- | --- | --- |
| CS(=O)(=O)NNS(=O)(=O)c1ccc(F)cc1 | > 100 µM | > 100 µM | > 100 µM | > 100 µM | > 100 µM | > 100 µM |  |  |  |
| COc1cccc(C=O)c1[O-].COc1cccc(C=O)c1[O-].[Zn+2] | > 100 µM | > 100 µM |  | 98.6 µM | > 100 µM | > 100 µM | > 100 µM | > 100 µM |  |
| CC(C)c1cccc(C(C)C)c1NC(=O)C(=O)C1CCC2=C(Sc3ccccc3N2)C1=O (centres undefined) | > 100 µM | > 100 µM | > 100 µM | > 100 µM | > 100 µM | > 100 µM | > 100 µM | > 100 µM |  |
| COC(=O)/C(=N\NC(N)=O)C(C#N)c1ccccc1 (centres undefined) | > 100 µM | > 100 µM |  | > 100 µM | > 100 µM | > 100 µM | > 100 µM | > 100 µM | > 100 µM |
| O=C1NC(=S)NC(=O)C1=CC1CC1 | > 100 µM | > 100 µM |  | > 100 µM | > 100 µM | > 100 µM | > 100 µM | > 100 µM | > 100 µM |
| CC1SC2=NC3=C(c4ccccc4C3=O)C(c3ccccc3Cl)N2C1=O (centres undefined) | > 100 µM | > 100 µM | > 100 µM | > 100 µM | > 100 µM | > 100 µM |  |  | > 100 µM |
| CCc1ccc(Cc2ccc(CC)c(NC(=O)C(=O)C3NC(=S)NC3=O)c2CC)c(CC)c1NC(=O)C(=O)C1NC(=S)NC1=O (centres undefined) | > 100 µM | > 100 µM | > 100 µM | > 100 µM | > 100 µM |  |  | > 100 µM |  |
| Oc1ccc(C2Oc3cc(O)cc4c3C2c2cc(O)cc3c2C(c2cc(O)cc5c2C4C(c2ccc(O)cc2)O5)C(c2ccc(O)cc2)O3)cc1 (centres undefined) | > 25 µM | > 25 µM |  | > 25 µM | > 25 µM | > 25 µM |  |  | 24.5 µM |
| Cc1nc(-n2nc(-c3ccccc3)cc2-c2ccccc2)sc1C(=O)/C=C/c1ccc([N+](=O)[O-])cc1 |  | > 100 µM | > 100 µM | 98.9 µM | 36.2 µM |  | > 100 µM | > 100 µM |  |
| CC(C)(CCl)NC(=O)c1cccc(C(=O)NC(C)(C)CCl)n1 | > 100 µM | > 100 µM | > 100 µM | > 100 µM | > 100 µM | > 100 µM |  | > 100 µM |  |
| Cc1cccc(N=Cc2ccc(N(CCC#N)S(=O)(=O)c3ccccc3)cc2C)c1 | > 100 µM | > 100 µM | > 100 µM | > 100 µM | > 100 µM | > 100 µM |  |  | > 100 µM |
| COC(=O)N/N=C(\C)CC(=O)Nc1cccc([N+](=O)[O-])c1 | > 100 µM | > 100 µM |  | > 100 µM | > 100 µM | > 100 µM |  | > 100 µM | > 100 µM |
| CCc1cccc(C(C)CC)c1NC(=O)C(=O)Cc1nc2ccccc2o1 (centres undefined) | > 50 µM | > 50 µM |  | > 50 µM | > 50 µM | > 50 µM |  | > 50 µM | > 50 µM |
| COc1ccc([Se][Se]c2ccc(OC)cc2OC)c(OC)c1 | 4.64 µM |  | 59.2 µM | 4.68 µM | 8.72 µM | 4.82 µM | 4.72 µM | 7.04 µM | 3.84 µM |
| CC(C)(C)OC(=O)N1CC(C)(C)N2C(=O)C3(CCCO3)C12 (centres undefined) | > 100 µM | > 100 µM |  | > 100 µM | > 100 µM | > 100 µM | > 100 µM | > 100 µM |  |
| C=CCCCN1CCCCC1=S |  | > 100 µM | > 100 µM | > 100 µM | > 100 µM | > 100 µM | > 100 µM |  | > 100 µM |
| O=c1[nH]nc(CNc2ccc(Cl)cc2Cl)c2ccccc12 | 40.1 µM | 75.2 µM | > 100 µM | > 100 µM | 90.6 µM | 37.1 µM | 54.4 µM | > 100 µM |  |
| O=c1c(C(c2ccc([N+](=O)[O-])cc2)c2c(O)c3ccccc3n(-c3ccccc3)c2=O)c(O)c2ccccc2n1-c1ccccc1 | 54.7 µM | > 100 µM | 44.6 µM | > 100 µM | > 100 µM | 73.5 µM | 9.08 µM | > 100 µM | 58.4 µM |
| CSc1nc(NC2OCC(OC(C)=O)C(OC(C)=O)C2OC(C)=O)c2c(n1)OCC2=O (centres undefined) | > 100 µM | > 100 µM |  | > 100 µM | > 100 µM | > 100 µM |  | > 100 µM |  |
| CNS(=O)(=O)NNS(=O)(=O)c1ccc(F)cc1 | > 100 µM | > 100 µM | > 100 µM | > 100 µM | > 100 µM | > 100 µM |  |  | > 100 µM |
| COc1ccc(-c2cc(=O)c3cc(Cl)ccc3[nH]2)cc1 | > 100 µM | > 100 µM | > 100 µM | > 100 µM | > 100 µM | > 100 µM | > 100 µM | > 100 µM | > 100 µM |
| CCCCCCCC(=O)OC[C@H](C[As](=O)(O)O)OC(=O)CCCCCCC | 21.7 µM | 30.2 µM |  | 27.2 µM | 28 µM | 19.5 µM | 49.2 µM | 44.3 µM |  |
| CSc1ccc2c(cc1=O)C(NC(=O)c1ccccc1)CCc1cc(O)c(O)c(O)c1-2 (centres undefined) | 60.8 µM | 3.62 µM |  | 65 µM | 32.7 µM | 79.7 µM | > 100 µM | > 100 µM |  |
| CN1N=C2c3ccccc3OC(c3ccccc3)[C@H]2C1c1ccccc1 (some centres undefined) | > 100 µM | > 100 µM |  | > 100 µM | > 100 µM | > 100 µM | > 100 µM | > 100 µM | > 100 µM |
| C#CC(C)(C)OCCCCOc1cc(O)c2c(=O)c3ccccc3n(C)c2c1 | > 100 µM | > 100 µM |  | > 100 µM | > 100 µM | > 100 µM | > 100 µM | > 100 µM | > 100 µM |
| O=C(O[C@H]1[C@@H]2C=CO[C@@H](OC3OC(CO)C(O)C(O)C3O)[C@@H]2[C@@]2(CO)O[C@@H]12)c1ccc(O)c(O)c1 (some centres undefined) | > 100 µM | > 100 µM |  | > 100 µM | > 100 µM |  |  | > 100 µM | > 100 µM |
| CN/N=C(\C(=O)Nc1ccc(C(F)(F)F)cc1[N+](=O)[O-])C(c1cnc2ccc([N+](=O)[O-])cc2n1)[N+](=O)[O-] (centres undefined) | > 100 µM |  |  | > 100 µM | > 100 µM | > 100 µM |  | > 100 µM |  |
| CCCCCCCC(=O)OCC1OC(n2cc(F)c(=O)[nH]c2=O)C(N)C(O)C1O (centres undefined) | > 100 µM | > 100 µM |  | > 100 µM | > 100 µM | > 100 µM | > 100 µM | > 100 µM |  |

— PubChem BioAssay (NCI)
